In data set [1] the test system is target gene SOD1. Nature of the data set: Test Example 7: inhibitory activity of lipid conjugated siRNA sequences on SOD1 in mouse adipose and muscle tissues (tail vein injection). Format: in vivo, C57BL/6j mice. The following applies: for D 14 % Mean value of inhibition rate / D 28 % Mean value of inhibition rate / D 49 % Mean value of inhibition rate / Kidney D 14 % Mean value of inhibition rate / Kidney D 28 % Mean value of inhibition rate / Kidney D 49 % Mean value of inhibition rate / Liver D 14 % Mean value of inhibition rate / Liver D 28 % Mean value of inhibition rate / Liver D 49 % Mean value of inhibition rate: tail vein injection 5 mg/kg; for D 28 % Mean value of inhibition rate / Kidney D 28 % Mean value of inhibition rate / Liver D 28 % Mean value of inhibition rate: D28; for D 49 % Mean value of inhibition rate / Kidney D 49 % Mean value of inhibition rate / Liver D 49 % Mean value of inhibition rate: D49; for Kidney D 14 % Mean value of inhibition rate / Kidney D 28 % Mean value of inhibition rate / Kidney D 49 % Mean value of inhibition rate: mouse kidney; for Liver D 14 % Mean value of inhibition rate / Liver D 28 % Mean value of inhibition rate / Liver D 49 % Mean value of inhibition rate: mouse liver. As to the method:
(§1) RNA extraction: the above tissue samples were taken out from the RNAlater, and smashed for 60 s in Tissuelyser type II full-automatic tissue homogenizer, and total RNAs of various tissue samples were extracted using the full-automatic nucleic acid extraction instrument and the nucleic acid extraction kit from Zhejiang Hanwei Science and Technology Co. Ltd. according to methods described in instructions.
(§2) Reverse transcription reaction: 1 μg of the extracted total RNAs of the tissue samples were taken, and configured into 20 μL of reverse transcription system according to a method described in kit instructions by using a reverse transcription kit (Reverse Transcription System, A3500) from Promega Corporation and selecting Oligo (dT)15 reverse transcription primers, and the reverse transcription reaction was completed. After the reaction was ended, 80 μL of RNase-Free water was added into the reverse transcription system to provide cDNA solution for Real-time PCR detection.
(§3) Real-time PCR detection: 20 μL of Real-time PCR reaction system per PCR detection well was configured according to a method described in kit instructions using SYBR™ Select Master Mix (Catalog number: 4472908) reagent from ABI company. Each detection system contained 5 μL of cDNA template obtained from the above reverse transcription reaction, 10 μL of SYBR™ Select Master Mix, 0.5 μL of 10 μM upstream primers, 0.5 μL of 10 μM downstream primers, and 4 μL of RNase-Free H2O. The configured reaction system was subjected to Real-time PCR amplification on ABI StepOnePlus PCR instrument by a three-step method, wherein an amplification procedure was pre-denaturation at 95° C. for 10 min, then denaturation at 95° C. for 30 s, annealing at 60° C. for 30 s, and extension at 72° C. for 30 s; and processes of denaturation, annealing, and extension were repeated for 40 cycles. Gene expression differences were calculated by the ΔΔCt method after completion of the procedure.
In the real-time fluorescence quantitative PCR method, relative quantitative calculation of remaining expression level and inhibition rate of gene mRNA of interest in various test groups was performed by the ΔΔCt method, and the calculation method is as follows:
The present test example evaluated, by an evaluation method for inhibitory activity on a target gene in mice, the inhibitory activity of siRNA sequence RZ899090 with the sense strand with the NM073 conjugation at Position 4, siRNA sequence RZ899091 with the sense strand with the NM074 conjugation at Position 4, siRNA sequence RZ899078 with the sense strand with the NM202 conjugation at Position 6 and siRNA reference sequence RZ899093 with the sense strand with the Uhd conjugation at Position 4, and siRNA reference sequence RZ899076 with the sense strand with the NM200 conjugation at Position 4 on the target gene SOD1 of interest in mice. The above conjugation vectors were different in that NM073 was C18 aliphatic chain, NM074 was C20 aliphatic chain, and NM0202 and NM0200 were C22 aliphatic chains.
6-8 Week-old C57BL/6j mice were randomly grouped by body weight, 15 per group, 6 groups in total. Mice in each group were dosed with the above siRNA conjugates by tail vein injection, with an administration dose of 5 mg/kg per mouse, and an administration volume of 150 μL. PBS control group was administered with the same volume of siRNA conjugate-free PBS solution. The day of administration was recorded as D0, and 5 mice in each group were sacrificed on D14, D28 and D49 after administration. Tissues such as paragonadal fat, left hind leg quadriceps muscle, heart, liver, and kidney were respectively taken and stored in the RNAlater. RNA extraction, reverse transcription, and real-time fluorescence quantitative detection were performed on various tissues according to the above method, and gene expression differences were calculated by the above ΔΔCt method.

In data set [2] the test system is target gene SOD1. Nature of the data set: Test Example 4: lipid conjugated siRNA sequences with different carbon chain lengths, SOD1 in mouse brain, lateral ventricle administration. The format is in vivo, C57BL/6j mice. Set-up: Right hemisphere Mean value of inhibition rate / Left hemisphere Mean value of inhibition rate: unit not given here. Conditions: lateral ventricle, 150 μg per mouse, D5; for Left hemisphere Mean value of inhibition rate: left hemisphere (non-administration side); for Right hemisphere Mean value of inhibition rate: right hemisphere (administration side). How it is done: 6-8 Week-old C57BL/6j mice were randomly grouped by body weight. Mice in each group were administered with siRNA by lateral ventricle administration, with an administration dose per mouse depending on a specific test. Taking Bregma in mouse brain as point 0 (origin), coordinates of right ventricle were found using the cerebral stereotaxic apparatus and position was marked on surface of skull (position of lateral ventricle was AP (anteroposterior, bregma anterior and posterior): −0.58 mm, ML (mediolateral, left and right of middle raphe): −1.2 mm, DV (dorsoventral, up and down cerebral dura mater plane): −2.2 mm). A dental electric drill was used to drill in the skull above a position of interest, and then medicament was injected into the lateral ventricle by a micro-dosing pump, wherein a total injection volume was 5 μL, and injection duration was 10 min. Needle was retained for 5 min after completion of injection, and then slowly withdrawn. Afterwards, needle hole was sealed with biomedical glue, and then head skin was adhered. After animals woke up, the animals were returned back to animal house and further fed. PBS control group was administered with the same volume of siRNA-free PBS solution. The day of administration was recorded as 0 day (D0), and the mice were sacrificed at observation point after the administration. Different parts of brain region were respectively taken and stored in the RNAlater.
as §1, §2, §3
In the real-time fluorescence quantitative PCR method, relative quantitative calculation of remaining expression level and inhibition rate of gene mRNA of interest in various test groups was performed by the ΔΔCt method, and the calculation method is as follows: […]

Setting [3] is: mouse adipose tissues (paragonadal fat), D14.
The mark [4] stands for this setting: mouse adipose tissues (paragonadal fat).
Where [5] appears, read: mouse skeletal muscle tissues (left hind leg quadriceps muscle), D14.
[6] abbreviates: mouse skeletal muscle tissues (left hind leg quadriceps muscle).

As for “RZ899076: siRNA reference sequence with the sense strand with the NM200 (C22) conjugation at Position 4; SEQ ID NO: 18 / 24 (sense UUUNAAUCCUCACUCUAAA; antisense UUUAGAGUGAGGAUUAAAAUG; NM200 (C22) conjugate at sense position 4; modified_base 1..2 OTHER; 2'-methoxy and 5'-thiophosphate modified nucleotides; modified_base 3 OTHER; 2'-methoxy modified nucleotide; modified_base 4 OTHER; n is the synthetic nucleotide analog NM200 as described in the disclosure.; modified_base 5..6 OTHER; 2'-methoxy modified nucleotides; modified_base 7..10 OTHER; 2'-fluoro modified nucleotides; modified_base 11..19 OTHER; 2'-methoxy modified ; modified_base 1 OTHER; 2'-methoxy and 5'-thiovinylphosphonate modified nucleotide; modified_base 2 OTHER; 2'-fluoro and 5'-thiophosphate modified …) [reference compound]”, the “D 14 % Mean value of inhibition rate” value in the data set with target gene SOD1 [1] (setting [3]) turned out to be 92.23%. In addition, in the data set with target gene SOD1 [1] (setting [4]), the “D 28 % Mean value of inhibition rate” value came out at 86.10% and the “D 49 % Mean value of inhibition rate” value is recorded as 73.36%. Further, in the data set on target gene SOD1 [1] (mouse heart tissues, D14), the “D 14 % Mean value of inhibition rate” value is recorded as 70.04%. Further, in the data set on target gene SOD1 [1] (mouse heart tissues), the “D 28 % Mean value of inhibition rate” value stood at 70.45% and the “D 49 % Mean value of inhibition rate” value came out at 37.03%. Further, in the data set with target gene SOD1 [1] (D14), the “Kidney D 14 % Mean value of inhibition rate” value is 9.13% and the “Liver D 14 % Mean value of inhibition rate” value amounted to 51.15%. Moreover, in the data set on target gene SOD1 [1], the “Kidney D 28 % Mean value of inhibition rate” value amounted to 9.82%, the “Kidney D 49 % Mean value of inhibition rate” value is recorded as 7.06%, the “Liver D 28 % Mean value of inhibition rate” value worked out at 15.46% and the “Liver D 49 % Mean value of inhibition rate” value is −13.46%. In the data set with target gene SOD1 [1] (setting [5]), the “D 14 % Mean value of inhibition rate” value is reported as 82.53%. Further, in the data set on target gene SOD1 [1] (setting [6]), the “D 28 % Mean value of inhibition rate” value was found to be 81.97% and the “D 49 % Mean value of inhibition rate” value was found to be 66.88%. Besides, in the data set with target gene SOD1 [2], the “Left hemisphere Mean value of inhibition rate” value is 65.25 and the “Right hemisphere Mean value of inhibition rate” value is 79.02.

Regarding “RZ899078: siRNA sequence with the sense strand with the NM202 (C22) conjugation at Position 6; SEQ ID NO: 20 / 24 (sense UUUUANUCCUCACUCUAAA; antisense UUUAGAGUGAGGAUUAAAAUG; NM202 (C22) conjugate at sense position 6; modified_base 1..2 OTHER; 2'-methoxy and 5'-thiophosphate modified nucleotides; modified_base 3..5 OTHER; 2'-methoxy modified nucleotides; modified_base 6 OTHER; n is the synthetic nucleotide analog NM202 as described in the disclosure.; modified_base 7..10 OTHER; 2'-fluoro modified nucleotides; modified_base 11..19 OTHER; modified_base 1 OTHER; 2'-methoxy and 5'-thiovinylphosphonate modified nucleotide; modified_base 2 OTHER; 2'-fluoro and 5'-thiophosphate modified nucleotide; modified_base 6 OTHER;)”, in the data set with target gene SOD1 [1] (liver and kidney (non-target tissues), tail vein 5 mg/kg, D28 and D49), the “inhibitory action on liver and kidney tissues” value is on record as “no inhibitory action”. Moreover, the “D 14 % Mean value of inhibition rate” value with target gene SOD1 [1] (setting [3]) is 91.53%. For the same substance, in the data set on target gene SOD1 [1] (setting [4]), the “D 28 % Mean value of inhibition rate” value is given as 75.82% and the “D 49 % Mean value of inhibition rate” value turned out to be 65.16%. Besides, the “inhibitory activity compared with the NM200 conjugated reference sequence RZ899076” value in the data set on target gene SOD1 [1] (mouse adipose tissues, tail vein 5 mg/kg, D14) is on record as “on par”. In the data set on target gene SOD1 [1] (mouse heart tissues, tail vein 5 mg/kg, D14, D28 and D49), the “inhibitory activity compared with Uhd conjugated reference sequence RZ899093 and NM200 conjugated reference sequence RZ899076” value was “superior inhibitory activity”. The “D 14 % Mean value of inhibition rate” value in the data set with target gene SOD1 [1] (mouse heart tissues, D14) came to 83.53%. Further, in the data set with target gene SOD1 [1] (mouse heart tissues), the “D 28 % Mean value of inhibition rate” value worked out at 79.52% and the “D 49 % Mean value of inhibition rate” value is 63.42%. Moreover, in the data set on target gene SOD1 [1] (D14), the “Kidney D 14 % Mean value of inhibition rate” value was −7.92% and the “Liver D 14 % Mean value of inhibition rate” value was determined as 20.63%. For the same substance, in the data set on target gene SOD1 [1], the “Kidney D 28 % Mean value of inhibition rate” value amounted to 1.46%, the “Kidney D 49 % Mean value of inhibition rate” value is on record as 2.03%, the “Liver D 28 % Mean value of inhibition rate” value is recorded as 15.46% and the “Liver D 49 % Mean value of inhibition rate” value is recorded as −11.54%. Also, the “D 14 % Mean value of inhibition rate” value in the data set on target gene SOD1 [1] (setting [5]) is 71.63%. Also, the “D 28 % Mean value of inhibition rate” value in the data set on target gene SOD1 [1] (setting [6]) amounted to 69.78%. In addition, in the data set on target gene SOD1 [1] (skeletal muscle, tail vein 5 mg/kg), the “inhibitory activity in mouse skeletal muscle tissues” value is listed as “highest inhibitory activity in muscles”. Further, in the data set with target gene SOD1 [2], the “Left hemisphere Mean value of inhibition rate” value is 30.24 and the “Right hemisphere Mean value of inhibition rate” value was found to be 52.15.
